Experimental findings from PubChem BioAssay (NCI) are described below.

The structures appear in SMILES notation. Where “and” joins values, the source holds several entries; their conditions need not be identical. Equal values may be shown once.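 48-hour exposure; five concentrations; linearly interpolated endpoints. Abbreviation: GI50, concentration required for 50% inhibition of growth. Definition used: TGI = concentration required for complete inhibition of growth.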

Holding throughout (test): growth of human tumour cells (NCI), 48 h
In test [1] the test system is TK-10 renal.
Test [2] deals with U251 CNS.
In test [3] the test system is NCI/ADR-RES ovarian.
Test [4] relates to HT29 colon.
Test [5] concerns SNB-19 CNS.
Test [6] relates to SN12C renal.
The subject of test [7] is NCI-H460 lung.
Test [8] concerns PC-3 prostate.
In test [9] the test system is OVCAR-4 ovarian.
Test [10] concerns UACC-257 melanoma.

For the molecule `COc1ncnc(NS(=O)(=O)c2ccc(N=C3C(=O)N(CN4CCN(c5c(F)cc6c(=O)c(C(=O)O)cn(C7CC7)c6c5OC)CC4C)c4ccc(Br)cc43)cc2)c1OC` (configuration not stated), the GI50 is 2.47 µM in test [1]; 19.7 µM in [2]; 7.06 µM in [3]; 15.6 µM in test [4]; 19.4 µM in test [5]; 10.1 µM in test [6]. For the same molecule, the GI50 in test [7] was 3.99 µM; in [8], 6.76 µM; in test [9], over 50 µM; in test [10], 16.9 µM. Also, the TGI in [1] was over 50 µM; in test [2], over 50 µM; in test [3], over 50 µM; in [4], over 50 µM; in test [5], over 50 µM; in test [6], 23.4 µM. The TGI in [7] is 19.5 µM; in test [8], 29.4 µM; in [9] it was over 50 µM; in test [10], over 50 µM.

`Cc1cc(N=Nc2ccccc2C)ccc1N`: the GI50 in [1] was 15.5 µM; in [3], 13.7 µM; in [5], 16.4 µM; in [6] it was 2.86 µM; in test [7] it was 12.3 µM; in test [8], 5.99 µM. Besides, in [10], the GI50 is 20.2 µM. In addition, the TGI in [1] was 49.3 µM and 72 µM; in [2], 35.7 µM and 30.4 µM; in test [3], 25 µM and 43.2 µM; in [4], 33.3 µM and 38.2 µM; in test [5], > 100 µM and 56 µM; in test [6] it was 27.4 µM and 16.3 µM. In addition, the TGI was 17.7 µM and 31.2 µM in [7]; 26.8 µM and 91.5 µM in test [8]; 62.3 µM in test [9]; 38 µM and 44.9 µM in [10].
